# From patent US20030143251A1, “Skin preparations for external use” (priority 2000, published 2003)
# Where two headings read alike, the source gives them in different places.
# Columns and labels:
# [1] = Maintenance on mouse skin samples (residual rate by HPLC); type: in vitro ADME; conditions: for Maintenance 19 hours after starting incubation: 0.5 g and 2.0 g mouse skin; for Maintenance 19 hours after starting incubation / Residual rate: 0.037M, pH 7.0, 37° C.; for Residual rate: 0.5 g of the skin sample, 40 hours
# Protocol: The back skin was depilated and peeled off after sacrificing mice by cervical dislocation at 24 weeks of age.
# Each sample was tested in triplicate (n=3) in all of the 4 groups, and mean residual rates were calculated.
# HPLC was conducted under the following conditions:
# Solvent: methanol-water (20:80, v/v, adjusted to pH 2.5 using phosphoric acid)
# [2] = Maintenance in mouse skin extract fluid (residual rate by HPLC); type: in vitro ADME; conditions: skin extract fluid 1:1 with 0.1M solution, pH 7.0, 37° C.
# Protocol: The skin samples obtained in Evaluation example 5 were weighed, and 2.6 g was added to sodium citrate-phosphate buffer solution (5.2 ml, pH 7.0) and homogenized. The homogenate obtained was used as skin extract fluid.
# Each sample was tested in triplicate (n=3) in both groups, and mean residual rates were calculated.
# HPLC was conducted under the conditions used in Evaluation example 5.
# [3] = Stability (decomposition rate) in acidic, neutral and alkaline aqueous solutions; type: physicochemical
# [4] = tested on: mushroom-derived tyrosinase; conditions: cited from earlier work
# [5] = reported; cited from earlier work
# [6] = pH 5.5, aqueous solution, 0.045M, 37° C.
# [7] = pH 6.5, aqueous solution, 0.045M, 37° C.
# [8] = pH 7.5, aqueous solution, 0.045M, 37° C.
Maintenance 19 hours after starting incubation [1],Residual rate [1] [%],Maintenance 4 hours after starting incubation [2],"Residual rate, times larger than that of β-arbutin ([1]; 2.0 g of the skin sample, 40 hours after incubation)",Residual rate compared with the β-arbutin group ([2]; 20 hours),"half-life at 0.045 M ([3]; buffer, pH 6.5) [min]","half-life at 0.045 M ([3]; buffer, pH 7.5) [min]","Decomposition rate constant [3, 6]","Decomposition rate constant [3, 7]","Decomposition rate constant [3, 8]","half-life at 0.045 M ([3]; aqueous solution, pH 5.5, over pH 5.5 to 7.5, 37° C., read-out: Half-life in alkaline and acidic regions) [min]","half-life at 0.045 M ([3]; aqueous solution, pH 5.5, pH 5.5, aqueous solution, 0.045M, 37° C., α-arbutin determined after 69 hrs, read-out: Half-life (converted)) [min]","half-life at 0.045 M ([3]; aqueous solution, pH 6.5, pH 6.5, aqueous solution, 0.045M, 37° C., read-out: Half-life (converted)) [min]","half-life at 0.045 M ([3]; aqueous solution, pH 7.5, pH 7.5, aqueous solution, 0.045M, 37° C., read-out: Half-life (converted)) [min]",Compound,Effect on mushroom-derived tyrosinase activity ([4]; Tokkaihei No. 5-932),Inhibition of mushroom-derived tyrosinase ([4]; Tokkaihei No. 6-153976),"Tyrosinase inhibiting activity ([4]; mushroom-derived tyrosinase, Biochem. Biotech. Biochem., 59, 143 (1995))","Cytotoxicity, times more cytotoxic than β-arbutin [5]"
remained virtually intact,0,remained virtually intact,,,,,,,,,,,,"OC[C@H]1O[C@@H](Oc2ccc(O)cc2)[C@H](O)[C@@H](O)[C@@H]1O [β-Arbutin, hydroquinone-β-glucopyranoside, reference compound]",,,,
remained virtually intact,87.5,remained virtually intact,about 10 times,more than twice higher,3200,1890,0,0.013,0.022,,,,,"OCC1OC(Oc2ccc(O)cc2)C(O)C(O)C1O [α-Arbutin, hydroquinone-α-D-glucopyranoside]","promotes, rather than inhibits",effective in inhibiting mushroom-derived tyrosinase,does not show tyrosinase inhibiting activity,
,,,,,,,0.064,0.903,1.117,36 to 648,648,48,36,"Oc1ccc(O)cc1 [Hydroquinone, hydroquinone]",,,,about 400 times
